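Exposure lasted 48 hours, with cells grown in 96-well plates and compounds tested at five concentrations. TGI denotes the concentration required for complete inhibition of growth.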 *1 amine or outer side, *2 acyl side, *3 side chain or, on linkers, in order; H or OH if unused. Where a SMILES comes first, the peptide text is derived from it. Bridges are numbered along the chain shown (N, C = ends). Roman numbers before positions name the chains, in order. [ ]: non-standard residue; d: D form. Actinocin(9to1) = Cc1c2oc3c(C)ccc(C(=O)[*:1])c3nc-2c(C(=O)[*:2])c(N)c1=O; NMeH = CN[CH](Cc1c[nH]cn1)C(=O)O; Sar = CNCC(=O)O
Assays:
Assay in all cases: DTP human tumour cell line panel, 48 h
NCI-H460 lung = system: NCI-H460 lung
HS 578T breast = system: HS 578T breast
HCC-2998 colon = system: HCC-2998 colon
KM12 colon = system: KM12 colon
RXF 393 renal = system: RXF 393 renal
NCI/ADR-RES ovarian = system: NCI/ADR-RES ovarian
SNB-78 CNS = system: SNB-78 CNS
LXFL 529 NSCLC = system: LXFL 529 NSCLC
DMS 273 small cell lung = system: DMS 273 small cell lung
KM20L2 colon = system: KM20L2 colon
DMS 114 small cell lung = system: DMS 114 small cell lung
XF 498 CNS = system: XF 498 CNS
HOP-18 NSCLC = system: HOP-18 NSCLC
DLD-1 colon = system: DLD-1 colon
M19-MEL melanoma = system: M19-MEL melanoma

| SMILES | TGI (NCI-H460 lung) [µM] | TGI (HS 578T breast) [µM] | TGI (HCC-2998 colon) [µM] | TGI (KM12 colon) [µM] | TGI (RXF 393 renal) [µM] | TGI (NCI/ADR-RES ovarian) [µM] | TGI (SNB-78 CNS) [µM] | TGI (LXFL 529 NSCLC) [µM] | TGI (DMS 273 small cell lung) [µM] | TGI (KM20L2 colon) [µM] | TGI (DMS 114 small cell lung) [µM] | TGI (XF 498 CNS) [µM] | TGI (HOP-18 NSCLC) [µM] | TGI (DLD-1 colon) [µM] | TGI (M19-MEL melanoma) [µM] |
| --- | --- | --- | --- | --- | --- | --- | --- | --- | --- | --- | --- | --- | --- | --- | --- |
| Cc1cccc2c(N)c3cccc(C(=O)NCC[N+](C)(C)Cc4ccc([N+](=O)[O-])s4)c3nc12 | 16.5 | 34.6 | 25.2 | > 54.3 | 25.9 | > 100 |  |  |  |  |  |  |  |  |  |
| COC(=O)[C@@H]1CS(=O)(=O)C(C(C)C)N1C(C)=O (stereo partly drawn) | > 100 | > 100 | > 100 | > 100 | > 100 | > 100 |  |  |  |  |  |  |  |  |  |
| C[C@]12CC[C@H]3[C@@H](CCC4=CC(=O)C=C[C@@]43OC(=O)C(F)(F)F)[C@@H]1CCC2=O | > 100 | > 100 | > 100 | > 100 | > 100 | > 100 |  |  |  |  |  |  |  |  |  |
| CCn1c(=O)c2nc(SC)sc2n(-c2ccc(C)cc2)c1=O | > 100 | > 87.4 | > 100 | > 100 | > 100 | > 100 |  |  |  |  |  |  |  |  |  |
| N#C/C(=C/C=C/c1ccco1)C(N)=O | > 10 | > 10 | > 10 | > 10 | > 10 | > 10 |  |  |  |  |  |  |  |  |  |
| Cc1ccc(S(=O)(=O)N2C[C@@H]3CC[C@]4(CO[Si](C)(C)C(C)(C)C)N[C@@H](c5ccccc5)[C@H]2[C@H]34)cc1 | > 100 | > 100 | 50.5 | > 100 | 53.1 | > 100 |  |  |  |  |  |  |  |  |  |
| Cc1nc2cc(F)c(F)cc2[nH]c1=O | > 100 | > 100 | > 100 | > 100 | > 100 | > 100 |  |  |  |  |  |  |  |  |  |
| NCCCN(CCCCN(CCCN)C(=O)OCc1ccccc1)C(=O)OCc1ccccc1 | > 100 | > 100 | > 100 | > 100 | > 100 | > 100 |  |  |  |  |  |  |  |  |  |
| O=C(O)CCC(=O)OCN1C(=O)C2C3C=CC(C2C1=O)C1C2C(=O)N(COC(=O)CCC(=O)O)C(=O)C2C31 (stereo not drawn) | > 54.5 |  | > 100 | > 100 | > 100 |  | > 100 | > 100 | > 58.2 | > 100 | > 67.9 | > 100 | > 100 | > 100 | > 100 |
| C/C=C(\C)C(=O)OC1CC(OC(C)=O)C2(C(=O)OC)COC3C2C1(C)C1C2(C(=O)OC)OCC1(C3O)C1(O)C3CC(C4(O)C=COC4O3)C1(C)O2 (stereo not drawn) | > 100 | > 100 | > 100 | > 100 | > 100 | > 100 |  |  |  |  |  |  |  |  |  |
| O=C1c2cc(Cc3ccccc3)c(=O)c(Cc3ccccc3)cc2C(=O)c2cc(Cc3ccccc3)c(=O)c(Cc3ccccc3)cc21 | > 100 | > 100 | > 100 | > 100 | > 100 | > 100 |  |  |  |  |  |  |  |  |  |
| O=c1[nH]nc(-c2ccccc2)n1/N=C/c1ccc([N+](=O)[O-])o1 | > 22.6 | > 100 | 12.4 | 23.2 | 2.63 | > 26 |  |  |  |  |  |  |  |  |  |
| Cc1cc(-n2nnc(C(=O)O)c2-c2ccccc2)c2ccc(Cl)cc2n1 | > 100 | > 100 | > 100 | > 100 | > 100 | > 100 |  |  |  |  |  |  |  |  |  |
| COC(=O)C1CC2(C)C=CC1N(C(=O)OCc1ccccc1)C2 (stereo not drawn) | > 100 | > 100 | > 100 | > 100 | > 100 | > 100 |  |  |  |  |  |  |  |  |  |
| C=C(C(=O)O[C@H]1C/C(C)=C/CC/C(CO)=C/[C@H]2C(=O)OC(=C)[C@H]12)C(O)CO (stereo partly drawn) | 31.6 | 57.9 | 30.1 | 42.3 | 25.9 | 48.4 |  |  |  |  |  |  |  |  |  |
| CCCCc1ccc(Nc2ncc3ncn(COCCO)c3n2)cc1 | 57.9 | 83.7 | 40.7 | 99.1 | 86.6 | > 100 |  |  |  |  |  |  |  |  |  |
| O=P1(N2CCOCC2)OCCO1 | > 100 | > 100 | > 100 | > 100 | > 100 | > 100 |  |  |  |  |  |  |  |  |  |
| N#CC(CCN1CCC(Nc2ccccc2)(c2nnnn2C2CCCCC2)CC1)(c1ccccc1)c1ccccc1 | > 100 | > 100 | > 100 | > 100 | > 100 | > 100 |  |  |  |  |  |  |  |  |  |
| COC(=O)C1=C(OC(=O)/C(=C/c2ccccc2)c2ccc(OC)cc2)C(C(=O)OC)[C@@]2(O)[C@@H](C(=O)OC)[C@H](C)C[C@@H]1[C@@H]2C(=O)OC (stereo partly drawn) | > 100 | 99.3 | > 100 | > 100 | 64.7 | > 100 |  |  |  |  |  |  |  |  |  |
| Cc1c2oc3c(C)ccc(C(=O)NC4C(=O)NC(C(C)C)C(=O)N5CCCC5C(=O)N(C)CC(=O)N(C)C(Cc5cnc[nH]5)C(=O)OC4C)c3nc-2c(C(=O)NC2C(=O)NC(C(C)C)C(=O)N3CCCC3C(=O)N(C)CC(=O)N(C)C(Cc3cnc[nH]3)C(=O)OC2C)c(N)c1=O (stereo not drawn) (I: TVP[Sar][NMeH] / II: TVP[Sar][NMeH]; ester I:1-I:C, II:1-II:C; linker I:N-II:N via Actinocin(9to1); configuration not given here) | > 100 | > 100 | > 100 | > 100 | 51.9 | > 100 |  |  |  |  |  |  |  |  |  |
| N#CC1(C#N)C(C#N)(C#N)C1(C#N)C(N)=O | > 100 | > 100 | > 100 | > 100 | > 100 | > 100 |  |  |  |  |  |  |  |  |  |

Reference: PubChem BioAssay (NCI)
